Assay results reported in ChEMBL document CHEMBL5236583, “Semisynthesis, biological activities, and mechanism studies of Mannich base analogues of magnolol/honokiol as potential α-glucosidase inhibitors” (Bioorg Med Chem, 2022).
The source made the active and inactive calls. The calls are words filed in the database; no cut-off is given here.

Assays:
[1] = molecular target: Maltase-glucoamylase (Homo sapiens) (UniProt O43451); test: Inhibition of alpha-glucosidase (unknown origin) using pNPG as substrate at 64 uM preincubated with enzyme for 15 mins followed by substrate addition and measured after 10 mins by microplate reader analysis; details: time 25.0 min
[2] = Cytotoxicity against human L02 cells assessed as cell viability at 64 uM by CCK8 assay; format: toxicity, cell-based; details: read-out: Activity
[3] = molecular target: Maltase-glucoamylase (Homo sapiens) (UniProt O43451); test: Reversible inhibition of alpha-glucosidase (unknown origin) using pNPG as substrate assessed as reduction in velocity of enzyme-catalyzed reaction
[4] = molecular target: Maltase-glucoamylase (Homo sapiens) (UniProt O43451); test: Non-competitive inhibition of alpha-glucosidase (unknown origin) using pNPG as substrate preincubated with enzyme for 15 mins followed by substrate addition and measured for 15 mins by Lineweaver-Burk plot analysis; details: time 30.0 min
[5] = molecular target: Maltase-glucoamylase (Homo sapiens) (UniProt O43451); test: Competitive inhibition of alpha-glucosidase (unknown origin) using pNPG as substrate preincubated with enzyme for 15 mins followed by substrate addition and measured for 15 mins by Lineweaver-Burk plot analysis; details: time 30.0 min

Chain of Maltase-glucoamylase (Homo sapiens) (O43451 whole entry, looked up): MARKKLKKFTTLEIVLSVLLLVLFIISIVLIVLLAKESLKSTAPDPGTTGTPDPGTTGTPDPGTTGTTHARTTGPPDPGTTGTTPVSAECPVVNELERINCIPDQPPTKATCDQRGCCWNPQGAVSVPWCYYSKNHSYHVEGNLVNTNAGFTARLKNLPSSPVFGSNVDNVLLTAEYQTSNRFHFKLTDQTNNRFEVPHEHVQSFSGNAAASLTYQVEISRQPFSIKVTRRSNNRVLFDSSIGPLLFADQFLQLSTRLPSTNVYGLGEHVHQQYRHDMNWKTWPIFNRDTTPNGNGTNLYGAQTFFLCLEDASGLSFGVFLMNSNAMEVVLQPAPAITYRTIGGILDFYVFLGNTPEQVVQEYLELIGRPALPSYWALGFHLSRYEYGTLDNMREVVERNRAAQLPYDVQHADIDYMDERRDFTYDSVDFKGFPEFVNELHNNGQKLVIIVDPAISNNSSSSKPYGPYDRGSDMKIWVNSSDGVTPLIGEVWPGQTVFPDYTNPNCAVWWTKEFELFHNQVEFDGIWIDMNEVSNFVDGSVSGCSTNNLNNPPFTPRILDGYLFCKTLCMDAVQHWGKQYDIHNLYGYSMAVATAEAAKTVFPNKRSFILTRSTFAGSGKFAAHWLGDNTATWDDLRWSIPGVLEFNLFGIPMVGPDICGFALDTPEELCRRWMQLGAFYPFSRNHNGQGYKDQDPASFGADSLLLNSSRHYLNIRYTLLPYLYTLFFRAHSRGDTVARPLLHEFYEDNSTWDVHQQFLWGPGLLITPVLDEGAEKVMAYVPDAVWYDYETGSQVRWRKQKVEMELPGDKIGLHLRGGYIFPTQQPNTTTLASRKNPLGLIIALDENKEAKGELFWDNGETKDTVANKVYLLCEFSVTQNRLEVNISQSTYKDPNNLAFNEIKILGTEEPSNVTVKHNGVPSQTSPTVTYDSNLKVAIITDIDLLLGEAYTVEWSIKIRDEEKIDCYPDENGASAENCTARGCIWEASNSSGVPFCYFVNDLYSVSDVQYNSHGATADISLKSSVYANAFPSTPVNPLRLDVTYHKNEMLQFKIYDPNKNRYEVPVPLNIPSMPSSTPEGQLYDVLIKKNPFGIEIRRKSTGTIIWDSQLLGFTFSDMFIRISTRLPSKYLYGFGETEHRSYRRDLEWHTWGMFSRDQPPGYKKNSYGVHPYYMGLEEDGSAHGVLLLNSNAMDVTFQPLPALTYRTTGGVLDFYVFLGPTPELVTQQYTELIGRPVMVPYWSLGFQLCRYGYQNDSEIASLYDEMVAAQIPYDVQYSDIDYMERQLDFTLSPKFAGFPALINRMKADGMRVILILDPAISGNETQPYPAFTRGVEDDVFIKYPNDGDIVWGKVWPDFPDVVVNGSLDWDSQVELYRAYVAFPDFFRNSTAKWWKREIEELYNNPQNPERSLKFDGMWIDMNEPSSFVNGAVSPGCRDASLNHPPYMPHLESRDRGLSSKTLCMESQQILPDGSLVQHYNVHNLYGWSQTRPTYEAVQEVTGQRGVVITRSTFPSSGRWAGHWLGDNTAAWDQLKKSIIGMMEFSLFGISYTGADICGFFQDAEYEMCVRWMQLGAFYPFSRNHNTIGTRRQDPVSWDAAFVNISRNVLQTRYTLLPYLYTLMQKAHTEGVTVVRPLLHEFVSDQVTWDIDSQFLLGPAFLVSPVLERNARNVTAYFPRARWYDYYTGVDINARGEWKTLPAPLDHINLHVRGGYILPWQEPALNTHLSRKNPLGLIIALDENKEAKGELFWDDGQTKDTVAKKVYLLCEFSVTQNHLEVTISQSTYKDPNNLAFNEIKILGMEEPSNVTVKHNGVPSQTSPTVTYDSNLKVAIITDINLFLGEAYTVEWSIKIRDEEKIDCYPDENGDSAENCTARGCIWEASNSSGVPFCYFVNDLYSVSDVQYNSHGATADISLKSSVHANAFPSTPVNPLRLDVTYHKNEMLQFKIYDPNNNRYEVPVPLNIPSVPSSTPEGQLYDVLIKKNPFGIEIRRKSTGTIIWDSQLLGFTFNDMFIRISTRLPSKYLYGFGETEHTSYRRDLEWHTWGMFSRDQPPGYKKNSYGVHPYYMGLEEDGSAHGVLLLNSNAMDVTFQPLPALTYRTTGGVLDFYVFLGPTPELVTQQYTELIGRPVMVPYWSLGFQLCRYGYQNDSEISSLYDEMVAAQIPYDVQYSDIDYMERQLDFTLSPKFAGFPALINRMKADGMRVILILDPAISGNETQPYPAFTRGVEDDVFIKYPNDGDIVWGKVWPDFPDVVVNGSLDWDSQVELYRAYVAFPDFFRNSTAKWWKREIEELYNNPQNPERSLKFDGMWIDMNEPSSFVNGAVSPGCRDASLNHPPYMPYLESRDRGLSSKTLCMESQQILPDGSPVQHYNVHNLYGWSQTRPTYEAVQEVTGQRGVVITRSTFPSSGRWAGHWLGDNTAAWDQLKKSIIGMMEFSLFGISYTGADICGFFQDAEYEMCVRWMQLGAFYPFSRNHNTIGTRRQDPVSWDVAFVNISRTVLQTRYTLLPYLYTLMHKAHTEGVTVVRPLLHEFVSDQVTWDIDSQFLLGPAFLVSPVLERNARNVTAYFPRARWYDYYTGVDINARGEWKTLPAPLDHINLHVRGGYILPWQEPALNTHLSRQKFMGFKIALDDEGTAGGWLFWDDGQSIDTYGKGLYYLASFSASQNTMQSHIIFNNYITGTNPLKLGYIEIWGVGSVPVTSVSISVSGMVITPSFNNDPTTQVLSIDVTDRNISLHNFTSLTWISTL

inhibition [1] | Compound | also measured
6.5% | C=CCc1cc(CN2CCC(C)CC2)c(O)c(-c2cc(CC=C)c(O)c(CN3CCC(C)CC3)c2)c1 | –
7.2% | C=CCc1cc(CN(C(C)C)C(C)C)c(O)c(-c2cc(CC=C)c(O)c(CN(C(C)C)C(C)C)c2)c1 | –
8.6% | C=CCc1cc(-c2ccc(O)c(CC=C)c2)c(O)c(C(c2ccc(Cl)cc2)N2CCC(C)CC2)c1 (stereo not drawn) | –
87.7% | C=CCc1cc(-c2ccc(O)c(CC=C)c2)c(O)c(C(c2cc(Cl)cc(Cl)c2)N2CCCCC2)c1 (stereo not drawn) | viability at 64 µM [2]: > 80%
3.4% | C=CCc1ccc(O)c(-c2cc(CC=C)cc(CN(C)C(C)C)c2O)c1 | –
4.8% | C=CCc1cc(CN(CCC)CCC)c(O)c(-c2cc(CC=C)c(O)c(CN(CCC)CCC)c2)c1 | –
85% | C=CCc1cc(-c2ccc(O)c(CC=C)c2)c(O)c(C(c2ccc(OC)cc2)N2CCCCC2)c1 (stereo not drawn) | viability at 64 µM [2]: > 80%
8.2% | C=CCc1ccc(O)c(-c2cc(CC=C)cc(CN(CCCC)CCCC)c2O)c1 | –
15.5% | C=CCc1ccc(O)c(-c2cc(CC=C)cc(CN(C)c3ccccc3)c2O)c1 | –
6.2% | C=CCc1cc(CN(CC(C)C)CC(C)C)c(O)c(-c2cc(CC=C)c(O)c(CN(CC(C)C)CC(C)C)c2)c1 | –
97.5% | C=CCc1cc(-c2ccc(O)c(CC=C)c2)c(O)c(C(c2cc(Cl)cc(Cl)c2)N2CCC(C)CC2)c1 (stereo not drawn) | inhibition [3]: Active; inhibition [4]: Active; viability at 64 µM [2]: > 80%
4.7% | C=CCc1cc(CN(CCCC)CCCC)c(O)c(-c2cc(CC=C)c(O)c(CN(CCCC)CCCC)c2)c1 | –
27.8% | C=CCc1cc(-c2cc(CC=C)c(O)c(C(c3ccc(OC)cc3)N3CCC(C)CC3)c2)c(O)c(C(c2ccc(OC)cc2)N2CCC(C)CC2)c1 (stereo not drawn) | –
4.1% | C=CCc1cc(CN(C)C(C)C)c(O)c(-c2cc(CC=C)c(O)c(CN(C)C(C)C)c2)c1 | –
80.1% | C=CCc1cc(-c2cc(CC=C)c(O)c(C(c3ccc(Cl)cc3)N3CCOCC3)c2)c(O)c(C(c2ccc(Cl)cc2)N2CCOCC2)c1 (stereo not drawn) | viability at 64 µM [2]: > 80%
9.6% | C=CCc1ccc(O)c(-c2cc(CC=C)ccc2O)c1 | –
56.4% | C=CCc1cc(-c2ccc(O)c(CC=C)c2)c(O)c(C(c2cc(OC)c(OC)c(OC)c2)N2CCCCC2)c1 (stereo not drawn) | –

inhibition [1] | Compound | also measured
92.6% | C=CCc1cc(-c2ccc(O)c(CC=C)c2)c(O)c(C(c2cc(Cl)cc(Cl)c2)N2CCOCC2)c1 (stereo not drawn) | inhibition [3]: Active; inhibition [4]: Active; viability at 64 µM [2]: > 80%
40.6% | C=CCc1cc(-c2ccc(O)c(CC=C)c2)c(O)c(C(c2ccc(Cl)cc2)N2CCCC2)c1 (stereo not drawn) | –
6.3% | C=CCc1ccc(O)c(-c2cc(CC=C)cc(CN3CCC(C)CC3)c2O)c1 | –
13.6% | C=CCc1cc(-c2ccc(O)c(CC=C)c2)c(O)c(C(c2ccccc2)N2CCCCC2)c1 (stereo not drawn) | –
6.3% | C=CCc1ccc(O)c(-c2cc(CC=C)cc(CN(CCC)CCC)c2O)c1 | –
25.8% | C=CCc1cc(-c2ccc(O)c(CC=C)c2)c(O)c(C(c2ccccc2)N2CCC(C)CC2)c1 (stereo not drawn) | –
4.7% | C=CCc1cc(CN2CCCC2)c(O)c(-c2cc(CC=C)c(O)c(CN3CCCC3)c2)c1 | –
3.8% | C=CCc1ccc(O)c(-c2cc(CC=C)cc(CN(CC(C)C)CC(C)C)c2O)c1 | –
45% | C=CCc1cc(-c2ccc(O)c(CC=C)c2)c(O)c(C(c2ccc(Cl)cc2)N2CCCCC2)c1 (stereo not drawn) | –
6.2% | C=CCc1cc(-c2ccc(O)c(CC=C)c2)c(O)c(C(c2ccc(OC)cc2)N2CCOCC2)c1 (stereo not drawn) | –
63% | C=CCc1cc(CN(C)c2ccccc2)c(O)c(-c2cc(CC=C)c(O)c(CN(C)c3ccccc3)c2)c1 | –
30.6% | C=CCc1ccc(O)c(-c2ccc(O)c(CC=C)c2)c1 | –
3.33% | C=CCc1cc(CN2CCCCC2C)c(O)c(-c2cc(CC=C)c(O)c(CN3CCCCC3C)c2)c1 (stereo not drawn) | –
99% | C[C@H]1O[C@H](O[C@H]2[C@H](O)[C@@H](O)[C@@H](O[C@H]3[C@H](O)[C@@H](O)C(O)O[C@@H]3CO)O[C@@H]2CO)[C@H](O)[C@@H](O)[C@@H]1N[C@H]1C=C(CO)[C@@H](O)[C@H](O)[C@H]1O (stereo partly drawn) | inhibition [5]: Active
9.4% | C=CCc1ccc(O)c(-c2cc(CC=C)cc(CN3CCN(C)CC3)c2O)c1 | –
43% | C=CCc1cc(-c2ccc(O)c(CC=C)c2)c(O)c(C(c2cc(OC)c(OC)c(OC)c2)N2CCCC2)c1 (stereo not drawn) | –
